{"source": "ChEMBL document CHEMBL4477198", "about": "“Metabolites from the Fungal Endophyte Aspergillus austroafricanus in Axenic Culture and in Fungal-Bacterial Mixed Cultures” (J Nat Prod, 2016)", "key": {"[1]": {"system": "Staphylococcus aureus", "test": "Antibacterial activity against Staphylococcus aureus ATCC 700699 by broth microdilution method", "assay_type": "functional"}, "[2]": {"system": "Mycobacterium tuberculosis", "test": "Antibacterial activity against Mycobacterium tuberculosis H37Rv by broth microdilution method", "assay_type": "functional"}, "[3]": {"system": "L5178Y", "test": "Cytotoxicity against mouse L5178Y cells by MTT assay", "assay_type": "functional, cell-based"}, "[4]": {"system": "Bacillus subtilis", "test": "Antibacterial activity against Bacillus subtilis 168 trpC2 by broth microdilution method", "assay_type": "functional"}}, "note": "The source made the active and inactive calls. The calls are words filed in the database; no cut-off is given here."}
{"smiles": "Cc1cc(O)c(Oc2cc(C)cc(O)c2O)c(O)c1", "values": [{"measurement": "MIC", "setting": "[1]", "value": 25, "unit": "µM"}, {"measurement": "Activity", "setting": "[2]", "value": "inactive"}]}
{"smiles": "Cc1cc(O)cc(Oc2cc(C)c(C(N)=O)c(O)c2)c1", "values": [{"measurement": "Activity", "setting": "[2]", "value": "inactive"}]}
{"smiles": "CC(C)(O)CCC[C@](C)(O)c1ccc(C(=O)O)cc1", "values": [{"measurement": "Activity", "setting": "[2]", "value": "inactive"}]}
{"smiles": "COc1c(N2C[C@@H]3CCCN[C@@H]3C2)c(F)cc2c(=O)c(C(=O)O)cn(C3CC3)c12", "note": "[MOXIFLOXACIN]", "values": [{"measurement": "MIC", "setting": "[1]", "value": 1.56, "unit": "µg/mL"}]}
{"smiles": "CC1(C)CCC[C@](C)(c2ccc(C(=O)O)cc2O)O1", "values": [{"measurement": "Activity", "setting": "[2]", "value": "inactive"}]}
{"smiles": "CC(C)[C@@H](C)/C=C/[C@@H](C)[C@H]1CC[C@H]2C3=CC=C4C[C@@H](O)CC[C@]4(C)[C@H]3CC[C@]12C", "note": "[ERGOSTEROL]", "values": [{"measurement": "EC50", "setting": "[3]", "value": 12.6, "unit": "µM"}, {"measurement": "Activity", "setting": "[2]", "value": "inactive"}]}
{"smiles": "O=C(O)c1cn(C2CC2)c2cc(N3CCNCC3)c(F)cc2c1=O", "note": "[CIPROFLOXACIN]", "values": [{"measurement": "MIC", "setting": "[4]", "value": 0.008, "unit": "µg/mL"}]}
{"smiles": "COc1c(O)c(O)c(O)c2oc3c(Oc4c(O)cc(C)c5c(=O)c6c(O)cc(CO)cc6oc45)c(O)cc(C)c3c(=O)c12", "values": [{"measurement": "Activity", "setting": "[2]", "value": "inactive"}]}
{"smiles": "Cc1cc(O)c(O)c(Oc2cc(C)cc(O)c2O)c1", "values": [{"measurement": "MIC", "setting": "[1]", "value": 25, "unit": "µM"}, {"measurement": "Activity", "setting": "[2]", "value": "inactive"}]}
{"smiles": "Cc1cc(O)cc(Oc2cc(C)cc(O)c2)c1", "note": "[DIORCINOL]", "values": [{"measurement": "Activity", "setting": "[2]", "value": "inactive"}, {"measurement": "MIC", "setting": "[4]", "value": 34.8, "unit": "µM"}]}
{"smiles": "COC(=O)c1c(O)ccc2oc3cc(CO)cc(O)c3c(=O)c12", "values": [{"measurement": "Activity", "setting": "[2]", "value": "inactive"}]}
{"smiles": "C=CC(C)(C)[C@@]12C=C(OC)C(=O)N3/C(=C/c4c[nH]cn4)C(=O)N[C@]31N(OC)c1ccccc12", "values": [{"measurement": "Activity", "setting": "[2]", "value": "inactive"}]}
{"smiles": "O=c1cc(CO)c(O)co1", "values": [{"measurement": "Activity", "setting": "[2]", "value": "inactive"}]}
